Measurements reported in BindingDB's records for PubMed 34838650 (University of Messina, 2022).
pKi: −log10 of the molar value.

Key:
[1] = Inhibition of chymotrypsin-like activity of human 20s immuno proteasome beta5i subunit assessed as substrate hydrolysis using Suc-Leu-Leu-Val-Tyr-AMC as flurogenic substrate at 0.004 mg/ml measured for 10 mins by fluorescence assay
[2] = Inhibition of 20S constitutive proteosome beta2c subunit (unknown origin) assessed as substrate hydrolysis using Boc-Leu-Arg-Arg-AMC as fluorogenic substrate at 100 uM
[3] = target: Proteasome subunit beta type-9 (PSMB9); assay: Inhibition of 20S immuno proteosome beta1i subunit (unknown origin) assessed as substrate hydrolysis using Z-Leu-Leu-Glu-AMC as fluorogenic substrate at 100 uM
[4] = Inhibition of 20S constitutive proteosome beta1c subunit (unknown origin) assessed as substrate hydrolysis using Z-Leu-Leu-Glu-AMC as fluorogenic substrate at 100 uM
[5] = target: Proteasome subunit beta type-10 (PSMB10); assay: Inhibition of 20S immuno proteosome beta2i subunit (unknown origin) assessed as substrate hydrolysis using Boc-Leu-Arg-Arg-AMC as fluorogenic substrate at 100 uM
[6] = target: Proteasome subunit beta type-9 (PSMB9); assay: Inhibition of human spleen 20S immuno proteosome beta1i subunit assessed as substrate hydrolysis using Ac-Pro-Ala-Leu-AMC as fluorogenic substrate by fluorescence based assay

SMILES	pKi [1]	pKi [2]	pKi [3]	pKi [4]	pKi [5]	pKi [6]
CC(C)CCNC(=O)Cn1ccc2ccc(Br)cc2c1=O	5.36	–	–	–	–	–
COc1cc2ccn(C/C=C/C(=O)Nc3ccccc3)c(=O)c2cc1OC	–	4.82	5.00	4.77	4.92	–
COc1cc2ccn(C/C=C/C(=O)NCc3ccccc3)c(=O)c2cc1OC	–	5.05	5.52	4.64	–	–
COc1cc2ccn(C/C=C/C(=O)NC3CCCCC3)c(=O)c2cc1OC	–	–	–	–	4.38	–
O=C(CCn1ccccc1=O)NCc1ccccc1	–	–	–	–	–	7.68

The remaining lines, values ahead:

pKi [1]	pKi [2]	pKi [3]	pKi [4]	pKi [5]	pKi [6]	SMILES
–	5.00	4.85	–	5.40	–	COc1cc2ccn(C/C=C/C(=O)NCCc3ccccc3)c(=O)c2cc1OC
–	5.30	4.30	–	5.52	–	COc1cc2ccn(C/C=C/C(=O)NCCCc3ccccc3)c(=O)c2cc1OC
–	5.00	–	–	4.38	–	CCCCNC(=O)/C=C/Cn1ccc2cc(OC)c(OC)cc2c1=O
–	5.40	6.57	–	4.70	–	COc1cc2ccn(C/C=C/C(=O)NCCC(C)C)c(=O)c2cc1OC
